Reference: patent USRE50663E1, “Heterocycle derivatives as pesticides” (Bayer Aktiengesellschaft, priority 2017, dated 2025)
Where two headings read alike, the source gives them in different places.

Experiments:
[1] = logP by HPLC on reversed-phase column (C18), acidic range; assay type: physicochemical; conditions: formic acid in water/acetonitrile
Method: The logP values were determined according to EEC Directive 79/831 Annex V.A8 by HPLC (high-performance liquid chromatography) on a reversed-phase column (C18) using the following methods:
Calibration was carried out using a homologous series of straight-chain alkan-2-ones (having 3 to 16 carbon atoms) with known logP values. The values between successive alkanones are determined by linear regression.

[2] = test system: adult cat fleas (Ctenocephalides felis); test: Ctenocephalides felis oral test; assay type: in vivo; conditions: 48 h, read-out: efficacy (kill)
Method: (§1) Solvent: dimethyl sulfoxide
To produce a suitable active compound formulation, 10 mg of active compound are mixed with 0.5 ml of dimethyl sulfoxide. Dilution with citrated cattle blood gives the desired concentration.
About 20 unfed adult cat fleas (Ctenocephalides felis) are placed into a chamber which is closed at the top and bottom with gauze. A metal cylinder whose bottom end is closed with parafilm is placed onto the chamber. The cylinder contains the blood/active compound formulation, which can be imbibed by the fleas through the parafilm membrane.
After 2 days, the kill in % is determined. 100% means that all of the fleas have been killed; 0% means that none of the fleas have been killed.

[3] = test system: L1 larvae of the Australian sheep blowfly (Lucilia cuprina); test: Lucilia cuprina test; assay type: in vivo; conditions: 48 h, read-out: efficacy (kill)
Method: as §1
To produce a suitable active compound formulation, 10 mg of active compound are mixed with 0.5 ml of dimethyl sulfoxide, and the concentrate is diluted with water to the desired concentration.
About 20 L1 larvae of the Australian sheep blowfly (Lucilia cuprina) are transferred into a test vessel containing minced horsemeat and the active compound formulation of the desired concentration.
After 2 days, the kill in % is determined. 100% means that all the larvae have been killed; 0% means that no larvae have been killed.

[4] = test system: green peach aphids (Myzus persicae); test: Myzus persicae oral test; assay type: in vivo; conditions: 120 h, read-out: efficacy
Method: Solvent: 100 parts by weight of acetone
To produce a suitable active compound formulation, 1 part by weight of active compound is dissolved with the stated parts by weight of solvent and made up to the desired concentration with water.
50 μl of the active compound formulation are transferred into microtitre plates and made up to a final volume of 200 μl with 150 μl of IPL41 insect medium (33%+15% sugar). Subsequently, the plates are sealed with parafilm, which a mixed population of green peach aphids (Myzus persicae) within a second microtitre plate is able to puncture and imbibe the solution.
(§2) After 5 days, the efficacy in % is determined. 100% means that all the aphids have been killed; 0% means that no aphids have been killed.

[5] = test system: caterpillars of the fall armyworm (Spodoptera frugiperda); test: Spodoptera frugiperda spray test; assay type: in vivo; conditions: foliar, 168 h, read-out: efficacy
Method: (§3) Solvent: 78.0 parts by weight of acetone • • 1.5 parts by weight of dimethylformamide
(§4) Emulsifier: alkylaryl polyglycol ether
(§5) To produce a suitable active compound formulation, 1 part by weight of active compound is dissolved with the specified parts by weight of solvent and made up to the desired concentration with water containing an emulsifier concentration of 1000 ppm. To produce further test concentrations, the formulation is diluted with emulsifier-containing water.
Leaf discs of maize (Zea mays) are sprayed with an active compound formulation of the desired concentration and, after drying, populated with caterpillars of the fall armyworm (Spodoptera frugiperda).
After 7 days, the efficacy in % is determined. 100% means that all the caterpillars have been killed; 0% means that no caterpillar has been killed.

[6] = test system: larvae of the mustard beetle (Phaedon cochleariae); test: Phaedon cochleariae spray test; assay type: in vivo; conditions: foliar, 168 h, read-out: efficacy
Method: as §3, §4, §5
Discs of Chinese cabbage leaves (Brassica pekinensis) are sprayed with an active compound formulation of the desired concentration and, after drying, populated with larvae of the mustard beetle (Phaedon cochleariae).
After 7 days, the efficacy in % is determined. 100% means that all the beetle larvae have been killed; 0% means that no beetle larvae have been killed.

[7] = test system: adult cat fleas (Ctenocephalides felis); test: Ctenocephalides felis in vitro contact test with adult cat fleas; assay type: in vivo; conditions: application rate 5 μg/cm^2 (=500 g/ha), after 48 h, dead or moribund fleas
Method: For the coating of the test tubes, 9 mg of active compound are first dissolved in 1 ml of acetone p.a. and then diluted to the desired concentration with acetone p.a. 250 μl of the solution are distributed homogeneously on the inner walls and the base of a 25 ml glass tube by turning and rocking on an orbital shaker (rocking rotation at 30 rpm for 2 h). With 900 ppm of active compound solution and internal surface area 44.7 cm^2, given homogeneous distribution, an area-based dose of 5 μg/cm^2 is achieved.
After the solvent has evaporated off, the tubes are populated with 5-10 adult cat fleas (Ctenocephalides felis), sealed with a perforated plastic lid and incubated in a horizontal position at room temperature and ambient humidity. After 48 h, efficacy is determined. To this end, the tubes are stood upright and the fleas are knocked to the base of the tube. Fleas which remain motionless at the base or move in an uncoordinated manner are considered to be dead or moribund.
100% efficacy means that all the fleas were dead or moribund. 0% efficacy means that no fleas were harmed.

[8] = test system: green peach aphid (Myzus persicae); test: Myzus persicae spray test; assay type: in vivo; conditions: foliar, 120 h, read-out: efficacy
Method: Solvent: 78 parts by weight of acetone • • 1.5 parts by weight of dimethylformamide
as §4, §5
Discs of Chinese cabbage leaves (Brassica pekinensis) infested by all stages of the green peach aphid (Myzus persicae) are sprayed with an active compound formulation of the desired concentration.
as §2

[9] = reversed-phase HPLC column (C18)
[10] = 100 ppm in citrated cattle blood, after 2 days
[11] = 100 g/ha, after 7 days, Chinese cabbage leaf discs
[12] = 100 g/ha, after 5 days, Chinese cabbage leaf discs
[13] = 100 g/ha, after 7 days, maize leaf discs

`CCS(=O)(=O)c1c(-c2nc3cc(C(F)(F)F)cnc3n2C)nc2cc(Br)ccn12` [2-[7-Bromo-3-(ethylsulfonyl)imidazo[1,2-a]pyridin-2-yl]-3-methyl-6-(trifluoromethyl)-3H-imidazo[4,5-b]pyridine] gave a chromatographic logP [1, 9] of 3.3.
`CCS(=O)(=O)c1c(-c2nc3cc(C(F)(F)F)cnc3n2C)nc2cc(N)ccn12` [3-(Ethylsulfonyl)-2-[3-methyl-6-(trifluoromethyl)-3H-imidazo[4,5-b]pyridin-2-yl]imidazo[1,2-a]pyridine-7-amine] gave a chromatographic logP [1, 9] of 2.13.
Molecule `CCS(=O)(=O)c1c(C(=O)O)nc2cc(Br)ccn12` [7-Bromo-3-(ethylsulfonyeimidazo[1,2-a]pyridine-2-carboxylic acid] has a chromatographic logP [1, 9] of 1.52.
In the case of `CCOC(=O)c1nc2cc(Br)ccn2c1SCC` [Ethyl 7-bromo-3-(ethylsulfanyl)imidazo[1,2-a]pyridine-2-carboxylate], the chromatographic logP [1, 9] is reported as 2.76.
For `CCOC(=O)c1nc2cc(Br)ccn2c1S(=O)(=O)CC` [Ethyl 7-bromo-3-(ethylsulfonyl)imidazo[1,2-a]pyridine-2-carboxylate], the chromatographic logP [1, 9] was 2.22.
In the case of `CCS(=O)(=O)c1c(-c2nc3cc(C(F)(F)F)cnc3n2C)nc2cc(NC(=O)OC3CCC3)ccn12` [Example I-02], the pest or weed control at 100 ppm [2, 10] is reported as 100%, the pest or weed control at 100 ppm [3] is reported as 100% and the pest or weed control at 4 ppm [4] is reported as 100%. The pest or weed control at 100 g/ha ([5]; in Zea mays) was 83%, the pest or weed control at 100 g/ha ([6]; in Brassica rapa) was 67% and the efficacy [7] was 100%. It also gave a pest or weed control at 100 g/ha ([8]; in Brassica rapa) of 70%.
With `CCS(=O)(=O)c1c(-c2nc3cc(C(F)(F)F)cnc3n2C)nc2cc(NC(=O)NC3CC3)ccn12` [Example I-03] the pest or weed control at 100 ppm [2, 10] was 100%, the pest or weed control at 100 ppm ([3]; 100 ppm, after 2 days) was 100% and the pest or weed control at 4 ppm ([4]; 4 ppm, after 5 days) was 100%. For the same molecule, the pest or weed control at 100 g/ha [6, 11] was 100% and the pest or weed control at 100 g/ha [8, 12] was 100%.
`CCS(=O)(=O)c1c(-c2nc3cc(C(F)(F)F)cnc3n2C)nc2cc(NC(=O)OCC3CC3)ccn12` [Example I-04] showed a pest or weed control at 100 ppm [2, 10] of 100%, a pest or weed control at 100 ppm [3] of 100% and a pest or weed control at 100 g/ha ([5]; in Zea mays) of 100%. It also gave a pest or weed control at 100 g/ha ([6]; in Brassica rapa) of 100%.
`CCS(=O)(=O)c1c(-c2nc3cc(C(F)(F)F)cnc3n2C)nc2cc(NC(=S)OCC3CC3)ccn12` [Example I-06, O-(Cyclopropylmethyl) {3-(ethylsulfonyl)-2-[3-methyl-6-(trifluoromethyl)-3H-imidazo[4,5-b]pyridin-2-yl]imidazo[1,2-a]pyridin-7-yl}carbamothioate] gave a pest or weed control at 4 ppm [4] of 100%, a pest or weed control at 100 g/ha ([5]; in Zea mays) of 100% and a pest or weed control at 100 g/ha ([6]; in Brassica rapa) of 100%. For the same molecule, the chromatographic logP [1] was 3.76.
`CCS(=O)(=O)c1c(-c2nc3cc(C(F)(F)F)cnc3n2C)nc2cc(NC(=O)OC3(C)CC3)ccn12` [Example I-08, 1-Methylcyclopropyl-{3-(ethylsulfonyl)-2-[3-methyl-6-(trifluoromethyl)-3H-imidazo[4,5-b]pyridin-2-yl]imidazo[1,2-a]pyridin-7-yl}carbamate] gave a pest or weed control at 100 ppm [2] of 100%, a pest or weed control at 100 ppm [3] of 100% and a pest or weed control at 4 ppm [4] of 100%. For the same molecule, the pest or weed control at 100 g/ha ([5]; in Zea mays) was 100%, the pest or weed control at 100 g/ha ([6]; in Brassica rapa) was 100% and the chromatographic logP [1] was 3.14.
Work on `CCS(=O)(=O)c1c(-c2nc3cc(C(F)(F)F)cnc3n2C)nc2cc(C(=O)NNC3CC3)ccn12` [Example I-10, N′-Cyclopropyl-3-(ethylsulfonyl)-2-[3-methyl-6-(trifluoromethyl)-3H-imidazo[4,5-b]pyridin-2-yl]imidazo[1,2-a]pyridine-7-carbohydrazide] yielded a pest or weed control at 4 ppm ([4]; 4 ppm, after 5 days) of 100%, a pest or weed control at 100 g/ha [8, 12] of 90% and a chromatographic logP [1, 9] of 2.41.
Work on `CCS(=O)(=O)c1c(-c2nc3cc(SC(F)(F)F)cnc3n2C)nc2cc(NC(=O)C3CC3)ccn12` [Example I-13] yielded a pest or weed control at 100 ppm [2, 10] of 100%, a pest or weed control at 100 ppm ([3]; 100 ppm, after 2 days) of 100% and a pest or weed control at 4 ppm ([4]; 4 ppm, after 5 days) of 100%. It also gave a pest or weed control at 100 g/ha [5, 13] of 100%, a pest or weed control at 100 g/ha [6, 11] of 100% and an efficacy [7] of 100%. The pest or weed control at 100 g/ha [8, 12] was 90%.
In the case of `CCS(=O)(=O)c1c(-c2nc3cc(C(F)(F)F)cnc3n2C)nc2cc(/C=C/C3CC3)ccn12` [Example I-14], the pest or weed control at 100 ppm [2, 10] is reported as 98%, the pest or weed control at 4 ppm ([4]; 4 ppm, after 5 days) is reported as 100% and the pest or weed control at 100 g/ha [5, 13] is reported as 100%. It also gave a pest or weed control at 100 g/ha [6, 11] of 100% and a pest or weed control at 100 g/ha [8, 12] of 90%.
With `CCS(=O)(=O)c1c(-c2nc3cc(S(=O)(=O)C(F)(F)F)cnc3n2C)nc2cc(S(=O)(=O)C3CC3)ccn12` [Example I-15] the pest or weed control at 100 g/ha [5, 13] was 100%, the pest or weed control at 100 g/ha [6, 11] was 100% and the pest or weed control at 100 g/ha [8, 12] was 90%.
`C=CCOC(=O)Nc1ccn2c(S(=O)(=O)CC)c(-c3nc4cc(C(F)(F)F)cnc4n3C)nc2c1` [Example I-17] showed a pest or weed control at 100 ppm [2, 10] of 100%, a pest or weed control at 100 g/ha ([5]; in Zea mays) of 100% and a pest or weed control at 100 g/ha ([6]; in Brassica rapa) of 100%.
Work on `CCS(=O)(=O)c1c(-c2nc3cc(C(F)(F)F)cnc3n2C)nc2cc(NC3=CC(=O)OC3)ccn12` [Example I-19] yielded a pest or weed control at 100 g/ha [6, 11] of 100%.
For `CCS(=O)(=O)c1c(-c2nc3cc(C(F)(F)F)ncc3n2C)nc2cc(S(=O)(=O)NC3CC3)ccn12` [Example I-23], the pest or weed control at 100 g/ha [8, 12] was 90%.
In the case of `CCS(=O)(=O)c1c(-c2nc3cc(C(F)(F)F)nnc3n2C)nc2cc(NS(=O)(=O)C3CC3)ccn12` [Example I-26], the pest or weed control at 100 g/ha [8, 12] is reported as 100%.
Molecule `CCS(=O)(=O)c1c(-c2nc3cc(OC(F)(F)F)cnc3n2C)nc2cc(C3(C#N)CC3)ccn12` [Example I-29] has a pest or weed control at 100 g/ha [5, 13] of 100%, a pest or weed control at 100 g/ha [6, 11] of 100% and a pest or weed control at 100 g/ha [8, 12] of 90%.
For `CCS(=O)(=O)c1c(-c2nc3cc(C(F)(F)F)cnc3n2C)nc2cc(NC(C)=O)ccn12` [N-{3-(Ethylsulfonyl)-2-[3-methyl-6-(trifluoromethyl)-3H-imidazo[4,5-b]pyridin-2-yl]imidazo[1,2-a]pyridin-7-yl}acetamide], the chromatographic logP [1, 9] was 2.28.
With `CCS(=O)(=O)c1c(-c2nc3cc(C(F)(F)F)cnc3n2C)nc2cc(CC#N)ccn12` [{3-(Ethylsulfonyl)-2-[3-methyl-6-(trifluoromethyl)-3H-imidazo[4,5-b]pyridin-2-yl]imidazo[1,2-a]pyridin-7-yl}acetonitrile] the chromatographic logP [1, 9] was 2.54.
